We go through three molecules from patent US7294485B2, “Rat calcium channel subunits and related probes, cell lines and methods” (Neuromed Pharmaceuticals Ltd., priority 2003, dated 2007).

The target in one experiment is α2δ-3 subunit (Homo sapiens, UniProt Q8IZS8). Conditions: Marais et al. 2001; cited from earlier work.
A further experiment deals with α2δ-2 subunit (Homo sapiens, UniProt Q9NY47). The conditions noted are these: Marais et al. 2001; cited from earlier work.
Experiment [1] deals with α2δ-3 expression in cultured rat atrial myocytes. The conditions noted are these: Chu 2003; cited from earlier work.
Experiment [2] deals with rat α1B+β1b Ca2+ channel (N-type calcium channel). Briefly: Whole-cell patch clamp current density of rat α1B+β1b channels with coexpressed α2δ-2 in transfected HEK 293 cells. It is filed as cell-based. On the procedure:
Human embryonic kidney cells, HEK 293 (ATCC# CRL 1573) or HEK 293 tsA 201, were grown in standard DMEM medium supplemented with 4 mM glutamine and 10% fetal bovine serum. The rat α2δ-2 construct was transfected into HEK 293 or HEK 293 tsA 201 cells with equimolar concentration of the subunits α1B (N-type calcium channel) and β1b, using lipofectamine (Gibco/Invitrogen) according to the manufacturer's instructions. pEGFP was included in the transfected cDNA at 3-5 times less the molar concentration to detect transfected cells and to determine the efficiency of transfection. Transfected cells were incubated at 37° C., 5% CO2, for 6-24 hours and then placed at 29° C., 5% CO2.
After an incubation period of 24 to 72 hours, the culture medium was removed and replaced with an external recording solution containing (in mM) 5 BaCl, 129 CsCl, 1 MgCl2, 10 HEPES, 10 glucose, pH 7.4 with CsOH. Whole-cell patch clamp recordings were made with an Axopatch 200B amplifier (Axon Instruments, USA). […] Signals were acquired at 2.02 kHz and analyzed offline using pClamp 8.2 (Axon Instruments, USA) and Origin (OriginLab Corporation, USA) software. […]
Mean current density was recorded for 4 cells transfected with rat α1B+β1b only and for 7 cells that were also cotransfected with rat brain α2δ-2 subunit. […]
A general note: In patch-clamp work, channel activity is measured electrically.

Chain of α2δ-3 subunit (Q8IZS8 29-1091): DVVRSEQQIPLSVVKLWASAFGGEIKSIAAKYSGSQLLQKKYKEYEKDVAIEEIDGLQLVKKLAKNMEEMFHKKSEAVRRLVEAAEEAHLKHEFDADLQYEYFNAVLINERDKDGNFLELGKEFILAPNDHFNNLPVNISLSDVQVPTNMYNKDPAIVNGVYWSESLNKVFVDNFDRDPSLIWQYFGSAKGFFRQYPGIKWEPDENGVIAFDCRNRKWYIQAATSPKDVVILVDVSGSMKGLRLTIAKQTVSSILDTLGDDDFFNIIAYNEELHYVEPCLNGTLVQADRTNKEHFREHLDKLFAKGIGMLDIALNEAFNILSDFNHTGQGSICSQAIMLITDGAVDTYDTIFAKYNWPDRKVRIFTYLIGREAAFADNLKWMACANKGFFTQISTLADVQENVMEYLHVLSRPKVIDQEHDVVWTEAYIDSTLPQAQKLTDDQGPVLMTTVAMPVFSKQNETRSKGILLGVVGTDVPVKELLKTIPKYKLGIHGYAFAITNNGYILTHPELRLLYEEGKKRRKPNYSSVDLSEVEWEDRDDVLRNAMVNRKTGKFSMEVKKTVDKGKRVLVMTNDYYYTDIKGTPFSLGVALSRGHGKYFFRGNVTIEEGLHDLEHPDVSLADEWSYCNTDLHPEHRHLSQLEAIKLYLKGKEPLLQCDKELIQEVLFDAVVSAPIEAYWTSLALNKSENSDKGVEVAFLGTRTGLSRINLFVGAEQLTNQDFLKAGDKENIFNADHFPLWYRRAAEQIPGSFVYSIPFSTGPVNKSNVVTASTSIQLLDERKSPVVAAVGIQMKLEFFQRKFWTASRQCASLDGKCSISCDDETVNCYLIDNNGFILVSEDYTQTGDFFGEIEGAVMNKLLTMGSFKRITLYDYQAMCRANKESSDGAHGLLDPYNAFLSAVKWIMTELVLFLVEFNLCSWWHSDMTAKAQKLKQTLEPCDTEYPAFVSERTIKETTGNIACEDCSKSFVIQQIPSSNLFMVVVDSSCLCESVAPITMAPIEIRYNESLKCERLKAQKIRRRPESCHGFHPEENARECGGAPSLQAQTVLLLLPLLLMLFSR
Chain of α2δ-2 subunit (Q9NY47 19-1150): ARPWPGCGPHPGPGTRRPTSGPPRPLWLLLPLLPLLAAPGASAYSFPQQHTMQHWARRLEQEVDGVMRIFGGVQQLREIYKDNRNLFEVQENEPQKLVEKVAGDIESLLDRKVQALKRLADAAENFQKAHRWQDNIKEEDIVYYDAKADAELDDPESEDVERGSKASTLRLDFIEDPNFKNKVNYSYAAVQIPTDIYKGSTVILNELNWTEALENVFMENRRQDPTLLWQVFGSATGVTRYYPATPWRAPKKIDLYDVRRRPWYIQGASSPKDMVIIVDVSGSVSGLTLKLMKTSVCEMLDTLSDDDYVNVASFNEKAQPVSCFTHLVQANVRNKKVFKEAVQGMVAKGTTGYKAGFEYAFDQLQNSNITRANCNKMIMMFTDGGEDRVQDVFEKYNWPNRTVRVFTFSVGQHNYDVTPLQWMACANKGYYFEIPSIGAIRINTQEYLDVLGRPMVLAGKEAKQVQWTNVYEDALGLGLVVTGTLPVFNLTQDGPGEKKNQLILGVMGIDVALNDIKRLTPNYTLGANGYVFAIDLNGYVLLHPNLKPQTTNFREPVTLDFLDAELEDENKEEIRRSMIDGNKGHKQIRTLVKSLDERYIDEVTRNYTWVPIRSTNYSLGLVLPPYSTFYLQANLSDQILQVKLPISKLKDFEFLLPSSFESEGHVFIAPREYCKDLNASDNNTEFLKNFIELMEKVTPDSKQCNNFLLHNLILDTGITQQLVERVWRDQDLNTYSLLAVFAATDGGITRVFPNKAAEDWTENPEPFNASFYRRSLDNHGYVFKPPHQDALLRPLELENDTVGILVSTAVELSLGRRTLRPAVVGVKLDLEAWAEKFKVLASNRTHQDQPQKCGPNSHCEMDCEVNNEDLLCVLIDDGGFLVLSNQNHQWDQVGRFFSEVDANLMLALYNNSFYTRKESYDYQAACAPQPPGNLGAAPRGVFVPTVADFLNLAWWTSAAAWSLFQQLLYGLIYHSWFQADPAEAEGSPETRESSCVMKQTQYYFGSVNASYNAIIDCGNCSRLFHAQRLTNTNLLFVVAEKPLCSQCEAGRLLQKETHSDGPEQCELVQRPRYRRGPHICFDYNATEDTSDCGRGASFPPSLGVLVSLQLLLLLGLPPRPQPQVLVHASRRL

For `NCC1(CC(=O)O)CCCCC1` [gabapentin], at α2δ-3 subunit, the “binding to α2δ-3 subunit” value is recorded as “not”. Moreover, the “binding to α2δ-2 subunit” value at α2δ-2 subunit is “binds”.

As to “IGF-1: IGF-1, reported to stimulate α2δ-3 expression in cultured rat atrial myocytes”, the “effect on α2δ-3 expression” value in experiment [1] is on record as “stimulates”.

B1: rat brain α2δ-2 subunit: α2δ-2 calcium channel subunit present in rat brain, SEQ. ID. NO:3, 1,150 amino acids, expressed from cDNA (protein, listed as Rattus norvegicus)
chain: MAVPARTCGASWPGPVRTARPWPGRGPRPCPDPRGPASGPARPLLLLLPPLLLLPLLTAPGASAYSFPQQHTMQHWARRLEQEIDGVMRIFGGVQQLREIYKDNRNLFDVQENEPQKLVEKVAGDIESLLDRKVQALKRLADAAENFQKAHRWQDNIKEEDIMYYDAKADAELDDPESEDMERGSKTSALRLDFIEEPNFKNKVNYSYTAVQIPTDIYKGSTVILNELNWTEALENVFIENRRQDPTLLWQVFGSATGVTRYYPATPWRAPKKIDLYDVRRRPWYIQGASSPKDMVIIVDVSGSVSGLTLKLMKTSVCEMLDTLSDDDYVNVASFNEKAQPVSCFTHLVQANVRNKKVFKEAVQGMVAKGTTGYKAGFEYAFDQLQNSNITRANCNKMIMMFTDGGEDRVQDVFEKYNWPNRTVRVFTFSVGQHNYDVTPLQWMACTNKGYYFEIPSIGAIRINTQEYLDVLGRPMVLAGKDAKQVQWTNVYEDALGLGLVVTGTLPVFNLTQDGPGEKKNQLILGVMGIDVALNDIKRLTPNYTLGANGYVFAIDLNGYVLLHPNLKPQTTNFREPVTLDFLDAELEDENKEEIRRSMIDEDKGHKQIRTLVKSLDERYIDEVIRNYTWVPIRSTNYSLGLVLPPYSTYYLQANLSDQILQVKYFEFLLPSSFESEGHVFIAPREYCKDLNASDNNTEFLKNFIELMEKVTPDSKQCNNFLLHNLILDTGITQQLVERVWRDQDLNTYSLLAVFAATDGAVTRVFPNKAAEDWTENPEPFNASFYRRSLDNRGYIFKPPHQDSLLRPLELENDTVGVLVSTAVELSLGRRTLRPAVVGVKLDLEAWAEKFKVLASNRTHQDQPQKQCGPSSHCEMDCEVNNEDLLCVLIDDGGFLVLSNQNHQWDQVGRFFSEVDANLMLALYNNSFYTRKESYDYQAACAPQPPGNLGAAPRGVFVPTIADFLNLAWWTSAAAWSLFQQLLYGLIYHSWFQADPAEAEGSPETRESSCVMKQTQYYFGSVNASYNAIIDCGNCSRLFHAQRLTNTNLLFVVAEKPLCSQCEVGRLLQKETHCPADGPEQCELVQRPRYRRGPHICFDYNATEDTSDCGRGTSFPPSLGVLVSLQLLLLLGLPPRPQPQIHSFAASRRL
With B1, in experiment [2] (rat α1B+β1b coexpressed with rat brain α2δ-2 in HEK 293 cells, test potential +20 mV from holding −80 mV, 7 cells, mean±S.E.M, without α2δ-2: −7.2±2.3), the “mean current density (Ipeak/cell capacitance)” value is −30.0±4.1 pA/pF. The “increase of rat α1B+β1b current density” value in experiment [2] (with versus without coexpressed α2δ-2, P=0.01) is approximately 4 fold.
